Assay results: US5789439A, “Pharmaceutical use of forskolin derivatives” (Nippon Kayaku Kabushiki Kaisha, priority 1990, dated 1998)
Counter-ions that a name gives are not always drawn.

Key:
Format in all cases: cell-based
[1] = system: NB-1 cells (a human neuroblastoma strain); test: Differentiation inducing effect for NB-1 cells; design: key: -: none; ±: slight (<20%); +: medium (20-80%); ++: heavy (>80%); conditions: 4-hour incubation
Protocol: The differentiation inducing effect for the NB-1 cells (a human neuroblastoma strain: cell strain derived from neuroblastoma generated in infantile adrenal gland) was examined. The NB-1 cells were applied to a 96-well plate at a rate of 2×10^3 cells/well and precultured for 3 days. After attachment and growth were stabilized, the medium (RPMI 1640+10% fetal calf serum+SM.PC) was exchanged and a 10 μl solution of each test compound was added. Then, the cells were kept under constant observation to determine the occurrence or non-occurrence of differentiation. 2 mM (1.037 mg/ml) of dibutyryl cAMP dissolved in RPMI 1640 was used as positive control. NKH-477 and 14,15-dihydro-6-(3-dimethylaminopropionyl)forskolin hydrochloride were dissolved in a physiological saline. Forskolin was dissolved in DMSO and diluted with a physiological saline. The criterion for judgment of morphological change in differentiation is as follows. The figures in the parentheses are the ratio of the differentiated cells to the whole cells. It was confirmed that DMSO was totally devoid of differentiation inducing and promoting action at the concentrations used in this test.

[2] = system: collagen-induced aggregation of rabbit blood thrombocyte; test: Collagen-induced platelet aggregation inhibition, rabbit platelet rich plasma; conditions: Oryctolagus cuniculus, Platelet; rabbit PRP, collagen 10 μg/ml; mean, n = 5; read-out: Platelet aggregation inhibitory action (IC50), Collagen-induced aggregation
Protocol: (§1) The platelet aggregation inhibitory action of NKH-477 was examined on collagen-induced aggregation and ADP-induced aggregation of rabbit blood thrombocyte. The male Japanese white rabbits (body weight: 2.4-2.8 kg, procured from Tokyo Experimental Animals Co., Ltd.) were divided into groups of 5. The rabbits were etherized and blood was collected from the carotid artery of each rabbit. A 3.8% sodium citrate solution (final concentration: 0.38%) was added to a portion of blood collected from each group of rabbits to obtain platelet rich plasma (PRP). The remaining portion of blood was centrifuged at 3,000 r.p.m. for 15 minutes to obtain platelet poor plasma (PPP). First, permeability of PRP and PPP was determined by using an aggregometer (RMA-31 mfd. by Rika Denki Kogyo K. K.) and set at 0% and 100%, respectively. Separately from the above operation, 250 μl of PRP was placed in a cuvette and after preliminary heating at 37° C. for 2 minutes, 20 μl of specimen was added and incubated under stirring for 2 minutes. Then 10 μl of ADP (Sigma, final conc.: 3×10^-6 M) or collagen (Hormon-Chemie, final conc.: 10 μg/ml) was added and the transmission rate was measured. The maximum transmission rate observed in this operation was termed as the maximum aggregation rate. Recording in this operation was conducted on an ink-written recorder (B-381L mfd. by Rika Denki Kogyo K. K.). NKH-477 was dissolved in a physiological saline to make concentrations of 10^-8 to 10^-5 M. Forskolin dissolved in ethanol was used as control.

[3] = system: ADP-induced aggregation of rabbit blood thrombocyte; test: ADP-induced platelet aggregation inhibition, rabbit platelet rich plasma; conditions: Oryctolagus cuniculus, rabbit PRP, ADP 3×10^-6 M, mean, n = 5, read-out: Platelet aggregation inhibitory action (IC50), ADP-induced aggregation
Protocol: as §1, with “NKH-477 was dissolved in a physiological saline to make concentrations of 10^-8 to 10^-5 M. Forskolin dissolved in ethanol was used as control.” left out

SMILES	Effect (differentiation inducing) ([1]; Dose 2000.0 μM)	IC50 [2] [µM]	IC50 [3] [µM]	Effect (differentiation inducing) ([1]; Dose 1.56 μM)	Effect (differentiation inducing) ([1]; Dose 6.25 μM)	Effect (differentiation inducing) ([1]; Dose 25.00 μM)	Effect (differentiation inducing) ([1]; Dose 100.00 μM)
CCCC(=O)Nc1ncnc2c1ncn2[C@@H]1O[C@@H]2COP(=O)(O)O[C@H]2[C@H]1OC(=O)CCC [Dibutyryl cAMP, dibutyryl cAMP, reference compound]	+ (medium (20-80%))						
C=C[C@@]1(C)CC(=O)[C@]2(O)[C@@]3(C)[C@@H](O)CCC(C)(C)[C@@H]3[C@H](O)[C@H](OC(C)=O)[C@@]2(C)O1 [Forskolin]		3.09	6.03	-	-	± (slight (<20%))	+ (medium (20-80%))
CC[C@@]1(C)CC(=O)[C@]2(O)[C@@]3(C)[C@@H](O)CCC(C)(C)[C@@H]3[C@H](OC(=O)CCN(C)C)[C@H](OC(C)=O)[C@@]2(C)O1 [14,15-dihydro-6-(3-dimethylaminopropionyl)forskolin hydrochloride]				± (slight (<20%))	± (slight (<20%))	++ (heavy (>80%))	++ (heavy (>80%))
